Data reported in paper PMC5150697 (ACS Medicinal Chemistry Letters, 2016).

How the values were obtained:
[1] = tested on: human α1 AGP; test: Equilibrium dialysis with human α1 AGP; type: in vitro ADME; settings: 1 µM, 0.1% AGP, pH 7.4, 37 °C, 4 h, n = 3
[2] = biological target: human serum albumin (HSA) (Homo sapiens, UniProt P02768); test: Equilibrium dialysis with HSA; type: in vitro ADME; settings: 1 µM, 4% HSA, pH 7.4, 37 °C, 4 h, n = 3
[3] = tested on: ABCA1 induction in human whole blood; test: Human whole blood assay; type: cell-based; settings: for improvement in hWBA potency compared to 5: ratio of hWBA EC50 values vs 5
[4] = after multiple days of dosing, limited therapeutic window; cited from earlier work

human serum albumin (HSA), sequence (P02768 25-609): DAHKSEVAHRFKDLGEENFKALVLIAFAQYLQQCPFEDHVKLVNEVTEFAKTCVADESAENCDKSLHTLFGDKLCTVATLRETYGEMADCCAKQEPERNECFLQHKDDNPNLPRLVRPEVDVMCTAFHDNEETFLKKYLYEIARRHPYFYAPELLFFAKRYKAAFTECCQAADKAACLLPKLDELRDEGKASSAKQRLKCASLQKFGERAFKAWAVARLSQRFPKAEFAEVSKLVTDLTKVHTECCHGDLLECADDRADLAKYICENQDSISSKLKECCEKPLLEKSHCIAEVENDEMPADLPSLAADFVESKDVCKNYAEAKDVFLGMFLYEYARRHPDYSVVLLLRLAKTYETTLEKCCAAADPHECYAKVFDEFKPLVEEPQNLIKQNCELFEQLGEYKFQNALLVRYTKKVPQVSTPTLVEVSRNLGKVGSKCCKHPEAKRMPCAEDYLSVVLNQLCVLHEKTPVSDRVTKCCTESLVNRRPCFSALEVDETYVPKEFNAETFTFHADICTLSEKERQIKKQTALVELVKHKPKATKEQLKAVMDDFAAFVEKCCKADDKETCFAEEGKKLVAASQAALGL

Compound | human α1 AGP (% bound) [1] [%] | improvement in hWBA potency compared to 5 [3] [fold] | other results
CC(C)(O)c1cn(-c2ccc(-c3cccc(S(C)(=O)=O)c3)cc2)c(C(C)(C)c2ccccc2Cl)n1 [Example 5] | 99.9 ± 0.0 |  | HSA (% bound) [2]: 97.2 ± 0.3%
CC(C)(O)c1cn(-c2ccc(-c3cccc(S(C)(=O)=O)c3)cc2)c(C(C)(C)c2c(Cl)cccc2Cl)n1 [Example 6] | 99.6 ± 0.2 | 3 | 
CC(C)(O)c1cn(-c2ccc(-c3cc(F)c(CO)c(S(C)(=O)=O)c3)cc2)c(C(C)(C)c2ccccc2Cl)n1 [Example 10] |  | 20 | 
CC(C)(O)c1cn(-c2ccc(-c3cc(F)c(CO)c(S(C)(=O)=O)c3)cc2)c(C(C)(C)c2c(Cl)cccc2Cl)n1 [Example 12] |  |  | improvement in hWBA potency ([3]; 2,6-dichloro analogue vs 10): 3–4 fold
CC(C)(O)c1cn(-c2ccc(-c3cc(F)c(CO)c(S(C)(=O)=O)c3)cc2F)c(C(C)(C)c2c(Cl)cccc2Cl)n1 [Example 15] |  |  | TGs and LDL-C in human trials [4]: elevated
